The source of these data is patent US8148392B2, “2-indolyl imidazo [4,5-d] phenanthroline derivatives and their use in the treatment of cancer” (Lorus Therapeutics Inc., priority 2005, dated 2012).

The subject of data set [1] is normal cell lines PrEC, HMEC, WI38 and cancer cell lines DU145, MDA-MB-435, HT-29. The data set is described as follows: Cancer cell selectivity, IC90 in normal versus cancer cell lines (XTT). It is filed as cell-based, human. Particulars: average IC90 of all normal / average IC90 of all cancer cell lines, 6 to 7 days. The source says: An exemplary method of assessing the differential sensitivity between normal and cancer cells for a compound has been described by Vassilev et al. (Anti-Cancer Drug Design (2001) 16:7). This method involves the comparison of IC90 values, i.e. the molar concentration of a test compound required to cause 90% growth inhibition of exponentially growing cells. Thus, the IC90 values for candidate compounds can be evaluated in various cancer cell lines (such as those outlined above) and normal cells (such as HUVEC and/or WI38 cells) and compared. IC90 values can be measured using a variety of standard techniques as known in the art. Cancer cell selectivity is calculated as a ratio between the average IC90 for all normal cell lines and the average IC90 for all cancer cell lines. Compounds with an IC90 ratio (normal/cancer) of >4 are considered to be selective for cancer cells (L. T. Vassilev et al., Anti-cancer Drug Design, 2001, 16: 7-17).
The normal cells lines used were PrEC (prostate), HMEC (breast), and WI38 (lung fibroblast) cell lines and the cancer cells lines were DU145 (prostate), MDA-MB-435 (breast), HT-29 (colon). IC90 values were also determined for the controls doxorubicin and etoposide. The cells were cultured as generally described in Example 13. Various concentrations of the compounds were incubated with the cells for 6 to 7 days, and the number of proliferating cells was measured using the XTT assay. Cancer cell selectivity was calculated as a ratio between the average IC90 for all normal and the average IC90 for all cancer cell lines.
On the technique in general: Tetrazolium dyes change colour on reduction, which living cells bring about.

The format of data set [2] is in vivo. The settings on record: i.p. twice per day for 1 week. Here is the method: To test the sub-acute toxicity of the compounds of Formula I, female mice were injected with the compounds and toxicity was evaluated based on mortality, changes in behaviour, appearance and weight. Briefly, ICR normal female mice (5-6 weeks old; n=33) weighing about 0.020 kg in body weight, were injected with various compounds at 100 mg/kg and 50 mg/kg or with the vehicle alone (Lutrol (M68, micronized)). Groups of 3 ICR female mice were injected with one intra-peritoneal (i.p.) injection of 250 μl of each compound at 4.0 mg/ml twice per day (100 mg/kg) for 1 week (Group I); or with one intra-peritoneal (i.p.) injection of 250 μl of each compound at 2.0 mg/ml twice per day (50 mg/kg) for 1 week (Group II), or with one intra-peritoneal (i.p.) injection of 250 μl of lutrol vehicle control twice per day for 1 week (Control Group).
The compounds to be tested were prepared to provide enough for one week at concentrations of 4.0 mg/ml and 2.0 mg/ml. Briefly, 50 mg of each compound was dissolved in 1.25 ml of 100% DMSO and diluted with 6.25 ml of Lutrol (30% in water) and 5 ml water, to prepare a solution of 4 mg/ml compound in 15% Lutrol in water. Next, 4 ml of each prepared solution was further diluted with 4 ml of 15% Lutrol in water to provide the 2.0 mg/ml solution of each compound. For the vehicle control solution, 8 ml of 15% Lutrol in water was prepared. Compounds at concentrations of 4.0 mg/ml and 2.0 mg/ml and the vehicle control were administered as described above.

A further data set concerns supercoiled plasmid DNA. Kind of data set: In vitro DNA cleavage assay. Particulars: 25 μM compound, 10 μM CuSO4, 100 μM ascorbic acid, 37° C., 30 minutes. In kind it is biochemical. On the procedure:
Compound 3 was tested for its ability to cleave plasmid DNA in vitro in the presence of copper and the reducing agent ascorbic acid. Experiments were performed in a total of 20 μl, containing 10 mM NaH2PO4/Na2HPO4 buffer (pH 6.7), 1 μg of supercoiled plasmid DNA, 100 μM ascorbic acid, 25 μM drug compound (or vehicle), and 10 μM of CuSO4.5H20. The reaction mixture was incubated at 37° C. for 30 minutes, and 1 μl of 0.1 M EDTA was added to terminate the reaction. DNA loading buffer was added, and reactions were run at 80V for 80 minutes on a 1% agarose gel containing ethidium bromide.
To determine whether ions other than copper could suffice, DNA cleavage reactions were also carried out in the presence of zinc or iron. Reactions were performed as above, in the presence of 25 μM of CuSO4.5H20, ZnCl2, or FeCl2.4H20. […] Note that copper alone in the presence of ascorbic acid can shift the ratio of supercoiled DNA to open circular DNA.
To determine the ratios of compound to copper at which compound 3 was effective, reactions were performed as in FIG. 22A. The ratios of compound 3 to copper of 3:1, 2.5:1, 2:1, 1.5:1, and 1:1, as shown in FIG. 23 were achieved by maintaining the concentration of Cu constant at 10 μM, and varying the concentration of compound 3. The ratios of compound 3 to Cu of 1:1.5, 1:2, 1:2.5, and 1:3, were achieved by maintaining the concentration of compound 3 constant at 10 μM, and varying the concentration of copper.
Other compounds of Formula I, compounds 5, 7, 9 and 13 were also tested for their ability to cleave DNA at a ratio of 2.5:1 to copper (FIG. 23). Ratios of compound 3:copper as indicated, plus concentrations of copper in the absence of compound 3 were used in the DNA cleavage assay as described above.

In data set [3] the test system is human colon carcinoma HT-29 cells. The data set is described as follows: XTT cell proliferation assay, HT-29. It is filed as cell-based. The settings on record: Homo sapiens, HT-29, XTT, read-out: IC50. Here is the method: The ability of compounds of Formula I to inhibit the proliferation of human colon carcinoma HT-29 cells was tested as follows. HT-29 colon carcinoma cells used in this example and subsequent examples were maintained as a monolayer in a growth medium; McCoy's 5A modified medium (Sigma, St. Louis, Mo.), supplemented with 2 mM L-glutamine (Gibco, Grand Island, N.Y.), 10% fetal bovine serum (FBS) (Multicell, WISENT Inc. St-Bruno, QC), antibiotic-antimycotic (Multicell), at 37° C. in a 5% CO2-humidified incubator. Cells were transferred onto 150 mm tissue culture plates and grown until sub-confluency (70-80%) prior to their use. The in vitro antiproliferative activity of compounds was evaluated by incubating the cells with varying concentrations of the compounds as shown in Table 1 for 6-7 days. The efficacy of these compounds in this cell proliferation assay was measured based in the ability of live cells to reduce the tetrazolium salt XTT to orange colored compounds of formazan (XTT cell proliferation kit II, Roche Applied Science, Montreal, QC).
The ability of compounds of Formula I to inhibit the proliferation of human colon carcinoma HT-29 cells was tested as described above in Example 13.
Cell growth inhibition IC50 (μM) by compounds of Formula I was tested on various cancer cell types by XTT cell proliferation assay. The growth inhibitory effects of the compounds of Formula I as shown below for the melanoma cell line SK-MEL-2 were reproducible by Lorus Therapeutics Inc.

Read-outs that look alike come from different tables or passages of the source. Bounds are passed on as bounds.

As for `COc1cccc2c1C(=O)c1c(O)c3c(c(O)c1C2=O)C[C@@](O)(C(=O)CO)C[C@@H]3O[C@H]1C[C@H](N)[C@H](O)[C@H](C)O1` [Doxorubicin, doxorubicin, reference compound], the “Normal/cancer IC90 ratio” value in data set [1] stood at 5.6.

In the case of `c1ccc(-c2[nH]c3ccccc3c2-c2nc3c4cccnc4c4ncccc4c3[nH]2)cc1` [Compound 9], in data set [1], the “Normal/cancer IC90 ratio” value was >5.6. Also, the Sub-acute toxicity result in data set [2] (50 mg/Kg) was “−”; in data set [2] (100 mg/Kg), “+”. Besides, the “cleavage of plasmid DNA” value in the data set on supercoiled plasmid DNA is “capable of cleaving DNA”. Moreover, the IC50 in data set [3] (6-7 days, Table 3) is 0.3 µM; in data set [3] (as Example 13, Table 7) it was 0.3 µg/mL.

Take `COc1cc([C@@H]2c3cc4c(cc3[C@@H](O[C@@H]3O[C@@H]5CO[C@@H](C)O[C@H]5[C@H](O)[C@H]3O)[C@H]3COC(=O)[C@H]23)OCO4)cc(OC)c1O` [Etoposide, etoposide, reference compound]: the “Normal/cancer IC90 ratio” value in data set [1] is reported as >5.0.

As a reminder, the IC50 is the point on the concentration scale where inhibition reaches its midpoint.
